Results reported in ChEMBL document CHEMBL3425412, “Additional sesterterpenes and a nortriterpene saponin from the sponge Clathria gombawuiensis” (2015).
In brackets after ≈: the same amount, converted by molar mass.

Legend:
Format in all cases: functional
[1] = test system: Proteus hauseri; assay: Antimicrobial activity against Proteus hauseri NBRC 3851 after 24 hrs by twofold dilution method; conditions: NBRC 3851, 24 h
[2] = test system: Staphylococcus aureus; assay: Antimicrobial activity against Staphylococcus aureus ATCC 6538p after 24 hrs by twofold dilution method
[3] = test system: A549; assay: Cytotoxicity against human A549 cells; conditions: read-out: LC50 (the source's name)
[4] = test system: K562; assay: Cytotoxicity against human K562 cells; conditions: read-out: LC50 (the source's name)
[5] = test system: Salmonella enterica; assay: Antimicrobial activity against Salmonella enterica ATCC 14028 after 24 hrs by twofold dilution method; conditions: ATCC 14028, 24 h
[6] = test system: Bacillus subtilis; assay: Antimicrobial activity against Bacillus subtilis ATCC 6633 after 24 hrs by twofold dilution method; conditions: ATCC 6633, 24 h
[7] = test system: Kocuria rhizophila; assay: Antimicrobial activity against Kocuria rhizophila NBRC 12708 after 24 hrs by twofold dilution method; conditions: NBRC 12708, 24 h

Compound	MIC [1] [µg/mL]	MIC [2] [µg/mL]	CC50 [3] [µM]	CC50 [4] [µM]	MIC [5] [µg/mL]	MIC [6] [µg/mL]	MIC [7] [µg/mL]
CC1=CC(=O)[C@@H]2[C@@]3(C)CCCC(C)(C)[C@@H]3[C@@H](O)C[C@]2(C)c2c1ccc(C)c2O	> 100	> 100	4.7	5.4			
C=C1/C=C\[C@@H]2[C@@]3(C)CCCC(C)(C)[C@@H]3[C@H](O)C[C@@]2(C)O[C@@H]2C=C(C)C(=O)C[C@H]12	> 100	> 100	3.9	4.5			
CC(=O)[C@H]1CC[C@@]2(C)C3=C(CC[C@]12C)[C@@]1(C)CCC(O[C@@H]2O[C@H](C(=O)O)[C@@H](O)[C@H](OS(=O)(=O)[O-])[C@H]2O)C(C)(C)[C@@H]1CC3.[Na+] (some centres undefined)	3.1	> 100	2.1	1.8	> 100	1.6	> 100
COc1c(C)ccc2c1[C@@]1(C)C[C@H](O)[C@H]3C(C)(C)CCC[C@]3(C)[C@H]1C(=O)C=C2C			> 100	> 100			
CC1(C)S[C@@H]2[C@H](NC(=O)[C@H](N)c3ccccc3)C(=O)N2[C@H]1C(=O)O [AMPICILLIN]	0.4 (≈ 1.14 µM)	0.4 (≈ 1.14 µM)			0.8 (≈ 2.29 µM)	0.4 (≈ 1.14 µM)	0.4 (≈ 1.14 µM)
COc1cccc2c1C(=O)c1c(O)c3c(c(O)c1C2=O)C[C@@](O)(C(=O)CO)C[C@@H]3O[C@H]1C[C@H](N)[C@H](O)[C@H](C)O1 [DOXORUBICIN]			1.1	1.5			
